The target in the assay is human FXR (NR1H4) (Homo sapiens (Human), UniProt Q96RI1). As to the kind of experiment: Human FXR (NR1H4) Assay (luciferase reporter, Indigo Bioscience kit). On Efficacy (%): efficacy normalized to CDCA set as 100%. It is filed as cell-based. The conditions noted are these: for EC50: FXR agonistic potency range, CHO reporter cells expressing human NR1H4, 22 hours incubation; for Emax: read-out: Efficacy (%). The text has this: Assays Human FXR (NR1H4) Assay
Determination of a ligand mediated Gal4 promoter driven transactivation to quantify ligand binding mediated activation of FXR. FXR Reporter Assay kit purchased from Indigo Bioscience (Catalogue number: IB00601) to determine the potency and efficacy of compound developed by Enanta that can induce FXR activation. The principle application of this reporter assay system is to quantify functional activity of human FXR. The assay utilizes non-human mammalian cells, CHO (Chinese hamster ovary) cells engineered to express human NR1H4 protein (referred to as FXR). Reporter cells also incorporate the cDNA encoding beetle luciferase which catalyzes the substrates and yields photon emission. Luminescence intensity of the reaction is quantified using a plate-reading luminometer, Envision. Reporter Cells include the luciferase reporter gene functionally linked to an FXR responsive promoter. Thus, quantifying changes in luciferase expression in the treated reporter cells provides a sensitive surrogate measure of the changes in FXR activity. […] The assay is according to the manufacturer's instructions. In brief, the assay was performed in white, 96 well plates using final volume of 100 ul containing cells with different doses of compounds. Retrieve Reporter Cells from −80° C. storage. Perform a rapid thaw of the frozen cells by transferring a 10 ml volume of 37° C. cell recovery medium into the tube of frozen cells. Recap the tube of Reporter Cells and immediately place it in a 37° C. water bath for 5-10 minutes. Retrieve the tube of Reporter Cell Suspension from the water bath. Sanitize the outside surface of the tube with a 70% alcohol swab, and then transfer it into the cell culture hood. Dispense 90 μl of cell suspension into each well of the 96-well Assay Plate. Transfer the plate into 37° C. incubator, allowing the cells adherent to the bottom of the well. Dilute compounds in Dilution Plate (DP), and administrate to cells at Assay Plate (AP). DMSO content of the samples was kept at 0.2%. Cells were incubated for additional 22 hours before luciferase activities were measured. Thirty minutes before intending to quantify FXR activity, remove Detection Substrate and Detection Buffer from the refrigerator and place them in a low-light area so that they may equilibrate to room temperature. Remove the plate's lid and discard all media contents by ejecting it into an appropriate waste container. Gently tap the inverted plate onto a clean absorbent paper towel to remove residual droplets. Cells will remain tightly adhered to well bottoms. Add 100 μl of luciferase detection reagent to each well of the assay plate. Allow the assay plate to rest at room temperature for at least 5 minutes following the addition of LDR. Set the instrument (Envision) to perform a single 5 second “plate shake” prior to reading the first assay well. Read time may be 0.5 second (500 mSec) per well.

Where only a bound is given, the exact number is not on record here.

Sequence of human FXR (NR1H4) (Q96RI1 whole entry, the tested form may be a part): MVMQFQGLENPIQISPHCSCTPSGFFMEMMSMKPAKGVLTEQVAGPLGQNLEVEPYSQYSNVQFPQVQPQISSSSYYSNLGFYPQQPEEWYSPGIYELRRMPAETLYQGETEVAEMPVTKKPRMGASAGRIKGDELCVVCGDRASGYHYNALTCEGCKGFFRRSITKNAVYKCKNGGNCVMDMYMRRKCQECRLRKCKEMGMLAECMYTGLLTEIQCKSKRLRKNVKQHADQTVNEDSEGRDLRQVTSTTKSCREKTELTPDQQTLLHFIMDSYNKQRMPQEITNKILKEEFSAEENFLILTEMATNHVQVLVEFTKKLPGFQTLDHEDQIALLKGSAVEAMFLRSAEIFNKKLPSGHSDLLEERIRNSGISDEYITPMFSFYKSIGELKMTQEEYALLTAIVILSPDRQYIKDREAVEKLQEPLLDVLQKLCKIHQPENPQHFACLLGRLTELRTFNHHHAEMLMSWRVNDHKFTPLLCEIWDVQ

`CC[C@H]1[C@@H](O)[C@@H]2[C@H](CC[C@]3(C)[C@@H]([C@H](C)C/C=C/c4ccccc4C(=O)OC)CC[C@@H]23)[C@@]2(C)CC[C@@H](O)C[C@@H]12` [Example 1]: the EC50 is 1000 to 10000 nM and the Emax is 217%. On to `CC[C@H]1[C@@H](O)[C@@H]2[C@H](CC[C@]3(C)[C@@H]([C@H](C)C/C=C/c4ccccc4C(=O)O)CC[C@@H]23)[C@@]2(C)CC[C@@H](O)C[C@@H]12` [Example 2], for which the concentration giving a half-maximal response (EC50) is < 100 nM and the Emax turned out to be 313%.

As to `CC[C@H]1[C@@H](O)[C@@H]2[C@H](CC[C@]3(C)[C@@H]([C@H](C)CCCc4ccccc4C(=O)O)CC[C@@H]23)[C@@]2(C)CC[C@@H](O)C[C@@H]12` [Example 3], the EC50 lay in the range of 100 to 1000 nM and the Emax was found to be 352%. For `CC[C@H]1[C@@H](O)[C@@H]2[C@H](CC[C@]3(C)[C@@H]([C@H](C)CC=Cc4cc(F)c(O)c(F)c4)CC[C@@H]23)[C@@]2(C)CC[C@@H](O)C[C@@H]12` [Example 4] the same measures were 100 to 1000 nM and 298%. As to `CC[C@H]1[C@@H](O)[C@@H]2[C@H](CC[C@]3(C)[C@@H]([C@H](C)CCCc4cc(F)c(O)c(F)c4)CC[C@@H]23)[C@@]2(C)CC[C@@H](O)C[C@@H]12` [Example 5], the EC50 was in the range of 1000 to 10000 nM and the Emax was found to be 271%. Turning to `CC[C@H]1[C@@H](O)[C@@H]2[C@H](CC[C@]3(C)[C@@H]([C@H](C)Cc4nc5c(C(=O)OC)cccc5o4)CC[C@@H]23)[C@@]2(C)CC[C@@H](O)C[C@@H]12` [Example 6], the half-maximal effective concentration (EC50) lay within 1000 to 10000 nM and the Emax is 131%. The corresponding values for `CC[C@H]1[C@@H](O)[C@@H]2[C@H](CC[C@]3(C)[C@@H]([C@H](C)Cc4nc5c(C(=O)O)cccc5o4)CC[C@@H]23)[C@@]2(C)CC[C@@H](O)C[C@@H]12` [Example 7] are 100 to 1000 nM and 195%. The corresponding values for `CC[C@H]1[C@@H](O)[C@@H]2[C@H](CC[C@]3(C)[C@@H]([C@H](C)CCCn4nnc(CC(=O)O)n4)CC[C@@H]23)[C@@]2(C)CC[C@@H](O)C[C@@H]12` [Example 8] are 1000 to 10000 nM and 29%. The corresponding values for `CC[C@H]1[C@@H](O)[C@@H]2[C@H](CC[C@]3(C)[C@@H]([C@H](C)CCCn4nnnc4CC(=O)O)CC[C@@H]23)[C@@]2(C)CC[C@@H](O)C[C@@H]12` [Example 9] are 1000 to 10000 nM and 172%.

Regarding `CC[C@H]1[C@@H](O)[C@@H]2[C@H](CC[C@]3(C)[C@@H]([C@H](C)CC4CC4c4ccccc4C(=O)O)CC[C@@H]23)[C@@]2(C)CC[C@@H](O)C[C@@H]12` (stereo partly shown) [Example 10], the EC50 fell in the range of 100 to 1000 nM and the Emax is 252%. Consider `CC[C@H]1[C@@H](O)[C@@H]2[C@H](CC[C@]3(C)[C@@H]([C@H](C)CCOc4ccccc4C(=O)O)CC[C@@H]23)[C@@]2(C)CC[C@@H](O)C[C@@H]12` [Example 11], for which the Emax is 388%. For `CC[C@H]1[C@@H](O)[C@@H]2[C@H](CC[C@]3(C)[C@@H]([C@H](C)C/C=C/c4ccc(C(=O)OC)c(O)c4)CC[C@@H]23)[C@@]2(C)CC[C@@H](O)C[C@@H]12` [Example 12], the EC50 was 1000 to 10000 nM and the Emax is 134%. The corresponding values for `CC[C@H]1[C@@H](O)[C@@H]2[C@H](CC[C@]3(C)[C@@H]([C@H](C)C/C=C/c4ccc(C(=O)O)c(O)c4)CC[C@@H]23)[C@@]2(C)CC[C@@H](O)C[C@@H]12` [Example 13] are 100 to 1000 nM and 166%. The corresponding values for `CC[C@H]1[C@@H](O)[C@@H]2[C@H](CC[C@]3(C)[C@@H]([C@H](C)CCCc4ccc(C(=O)O)c(O)c4)CC[C@@H]23)[C@@]2(C)CC[C@@H](O)C[C@@H]12` [Example 14] are 1000 to 10000 nM and 232%.

For the molecule `CC[C@H]1[C@@H](O)[C@@H]2[C@H](CC[C@]3(C)[C@@H]([C@H](C)C/C=C/c4ccc(C(C)C(=O)OC)cc4)CC[C@@H]23)[C@@]2(C)CC[C@@H](O)C[C@@H]12` (stereo partly shown) [Example 15], the EC50 was in the range of 1000 to 10000 nM and the Emax amounted to 40%.

For `CC[C@H]1[C@@H](O)[C@@H]2[C@H](CC[C@]3(C)[C@@H]([C@H](C)C/C=C/c4ccc(C(C)C(=O)O)cc4)CC[C@@H]23)[C@@]2(C)CC[C@@H](O)C[C@@H]12` (stereo partly shown) [Example 16], the EC50 lay in the range of 1000 to 10000 nM and the Emax was 248%. For `CC[C@H]1[C@@H](O)[C@@H]2[C@H](CC[C@]3(C)[C@@H]([C@H](C)CCCc4ccc(C(C)C(=O)O)cc4)CC[C@@H]23)[C@@]2(C)CC[C@@H](O)C[C@@H]12` (stereo partly shown) [Example 17] the same measures were 1000 to 10000 nM and 261%.

On to `CC[C@H]1[C@@H](O)[C@@H]2[C@H](CC[C@]3(C)[C@@H]([C@H](C)C/C=C/c4ccc(C(=O)OC)cc4)CC[C@@H]23)[C@@]2(C)CC[C@@H](O)C[C@@H]12` [Example 18], for which the EC50 fell in the range of 1000 to 10000 nM and the Emax amounted to 113%.

Turning to `CC[C@H]1[C@@H](O)[C@@H]2[C@H](CC[C@]3(C)[C@@H]([C@H](C)C/C=C/c4ccc(C(=O)O)cc4)CC[C@@H]23)[C@@]2(C)CC[C@@H](O)C[C@@H]12` [Example 19], the EC50 lay in the range of 100 to 1000 nM and the Emax worked out at 244%. Consider `CC[C@H]1[C@@H](O)[C@@H]2[C@H](CC[C@]3(C)[C@@H]([C@H](C)CCCc4ccc(C(=O)O)cc4)CC[C@@H]23)[C@@]2(C)CC[C@@H](O)C[C@@H]12` [Example 20], for which the EC50 was 1000 to 10000 nM and the Emax was 266%. For `CC[C@H]1[C@@H](O)[C@@H]2[C@H](CC[C@]3(C)[C@@H]([C@H](C)C/C=C/c4cccc(C(=O)OC)c4)CC[C@@H]23)[C@@]2(C)CC[C@@H](O)C[C@@H]12` [Example 21] the same measures were 1000 to 10000 nM and 92%. The corresponding values for `CC[C@H]1[C@@H](O)[C@@H]2[C@H](CC[C@]3(C)[C@@H]([C@H](C)C/C=C/c4cccc(C(=O)O)c4)CC[C@@H]23)[C@@]2(C)CC[C@@H](O)C[C@@H]12` [Example 22] are 1000 to 10000 nM and 195%. On to `CC[C@H]1[C@@H](O)[C@@H]2[C@H](CC[C@]3(C)[C@@H]([C@H](C)CCCc4cccc(C(=O)O)c4)CC[C@@H]23)[C@@]2(C)CC[C@@H](O)C[C@@H]12` [Example 23], for which the EC50 is 1000 to 10000 nM and the Emax was found to be 292%. The corresponding values for `CC[C@H]1[C@@H](O)[C@@H]2[C@H](CC[C@]3(C)[C@@H]([C@H](C)C/C=C/c4ccc(-c5nnn[nH]5)cc4)CC[C@@H]23)[C@@]2(C)CC[C@@H](O)C[C@@H]12` [Example 24] are 1000 to 10000 nM and 234%. For the molecule `CC[C@H]1[C@@H](O)[C@@H]2[C@H](CC[C@]3(C)[C@@H]([C@H](C)C/C=C/c4ccc(F)cc4C(=O)O)CC[C@@H]23)[C@@]2(C)CC[C@@H](O)C[C@@H]12` [Example 25], the Emax was 376%. Consider `CC[C@H]1[C@@H](O)[C@@H]2[C@H](CC[C@]3(C)[C@@H]([C@H](C)CCCc4ccc(F)cc4C(=O)O)CC[C@@H]23)[C@@]2(C)CC[C@@H](O)C[C@@H]12` [Example 26], for which the EC50 was in the range of 100 to 1000 nM and the Emax was 256%.

Turning to `CC[C@H]1[C@@H](O)[C@@H]2[C@H](CC[C@]3(C)[C@@H]([C@H](C)C/C=C/c4cnccc4C(=O)OC)CC[C@@H]23)[C@@]2(C)CC[C@@H](O)C[C@@H]12` [Example 27], the EC50 was 1000 to 10000 nM and the Emax came out at 296%. As for `CC[C@H]1[C@@H](O)[C@@H]2[C@H](CC[C@]3(C)[C@@H]([C@H](C)C/C=C/c4cnccc4C(=O)O)CC[C@@H]23)[C@@]2(C)CC[C@@H](O)C[C@@H]12` [Example 28], the EC50 was in the range of 100 to 1000 nM and the Emax stood at 300%. For the molecule `CC[C@H]1[C@@H](O)[C@@H]2[C@H](CC[C@]3(C)[C@@H]([C@H](C)C/C=C/c4ccccc4C#N)CC[C@@H]23)[C@@]2(C)CC[C@@H](O)C[C@@H]12` [Example 29], the concentration giving a half-maximal response (EC50) is 1000 to 10000 nM and the Emax came out at 210%.

For `CC[C@H]1[C@@H](O)[C@@H]2[C@H](CC[C@]3(C)[C@@H]([C@H](C)C/C=C/c4ccccc4-c4nnn[nH]4)CC[C@@H]23)[C@@]2(C)CC[C@@H](O)C[C@@H]12` [Example 30], the EC50 lay in the range of 100 to 1000 nM and the Emax is 332%.
